± gives the expanded uncertainty stated by the source.
Columns and labels:
[1] = xn = mol fraction of the nth substance listed; details: 101.3 kPa, Liquid
[2] = 101.33 kPa, Liquid

CCN(CC)CC [triethylamine] + O=[N+]([O-])c1ccccc1
[1], 303.15 K
Details	mass density [kg/m3]	viscosity [mPa·s]
x1 = 0.0113	1186.81 ± 0.81	1.59 ± 0.021
x1 = 0.0201	1181.7 ± 0.79	1.569 ± 0.021
x1 = 0.0288	1176.68 ± 0.78	1.547 ± 0.02
x1 = 0.0404	1169.97 ± 0.77	1.521 ± 0.02
x1 = 0.0506	1164.25 ± 0.76	1.499 ± 0.02
x1 = 0.0601	1158.7 ± 0.75	1.48 ± 0.02
x1 = 0.0688	1153.74 ± 0.74	1.466 ± 0.019
x1 = 0.0819	1146.33 ± 0.72	1.44 ± 0.019
x1 = 0.091	1141.21 ± 0.71	1.422 ± 0.019
x1 = 0.1005	1136.48 ± 0.7	1.407 ± 0.019

CCCN(CCC)CCC [tripropylamine]
[2]
Details	mass density [kg/m3]	viscosity [mPa·s]
303.15 K	749.15 ± 0.78	0.598 ± 0.011
313.15 K	740.41 ± 0.79	0.538 ± 0.01

CCCN(CCC)CCC [tripropylamine] + ClC(Cl)(Cl)Cl
[1]
Details	mass density, 303.15 K [kg/m3]	mass density, 313.15 K [kg/m3]	viscosity, 303.15 K [mPa·s]	viscosity, 313.15 K [mPa·s]
x1 = 0.0103	1558.08 ± 1.5	1538.54 ± 1.5	0.848 ± 0.012	0.754 ± 0.011
x1 = 0.0203	1542.01 ± 1.5	1522.71 ± 1.4	0.84 ± 0.012	0.747 ± 0.01
x1 = 0.0304	1526.35 ± 1.4	1507.24 ± 1.4	0.829 ± 0.011	0.739 ± 0.01
x1 = 0.0398	1511.85 ± 1.4	1492.94 ± 1.4	0.819 ± 0.011	0.733 ± 0.01
x1 = 0.0497	1496.93 ± 1.4	1478.28 ± 1.4	0.811 ± 0.011	0.726 ± 0.01
x1 = 0.0606	1480.86 ± 1.4	1462.46 ± 1.3	0.802 ± 0.011	0.718 ± 0.01
x1 = 0.0695	1468.02 ± 1.3	1449.76 ± 1.3	0.795 ± 0.011	0.712 ± 0.01
x1 = 0.0786	1455.03 ± 1.3	1437.01 ± 1.3	0.788 ± 0.011	0.706 ± 0.01
x1 = 0.0893	1440.17 ± 1.3	1422.3 ± 1.2	0.78 ± 0.011	0.699 ± 0.01

CCCN(CCC)CCC [tripropylamine] + ClC(Cl)Cl
[1]
Details	mass density, 303.15 K [kg/m3]	mass density, 313.15 K [kg/m3]	viscosity, 303.15 K [mPa·s]	viscosity, 313.15 K [mPa·s]
x1 = 0.0106	1453.58 ± 1.3	1431.77 ± 1.3	0.531 ± 0.008	0.476 ± 0.007
x1 = 0.0206	1437.45 ± 1.3	1416.02 ± 1.2	0.541 ± 0.008	0.48 ± 0.007
x1 = 0.032	1419.7 ± 1.2	1398.73 ± 1.2	0.546 ± 0.008	0.485 ± 0.007
x1 = 0.0396	1407.99 ± 1.2	1387.54 ± 1.2	0.554 ± 0.008	0.489 ± 0.007
x1 = 0.0509	1391.16 ± 1.2	1370.93 ± 1.1	0.563 ± 0.008	0.493 ± 0.007
x1 = 0.0596	1378.63 ± 1.1	1358.79 ± 1.1	0.568 ± 0.008	0.501 ± 0.008
x1 = 0.0693	1364.78 ± 1.1	1345.21 ± 1.1	0.579 ± 0.008	0.504 ± 0.008
x1 = 0.0787	1351.78 ± 1.1	1332.44 ± 1.1	0.59 ± 0.009	0.511 ± 0.008
x1 = 0.0883	1338.63 ± 1.1	1319.39 ± 1	0.598 ± 0.009	0.516 ± 0.008
